Four molecules from patent publication US20260283988A1, “FERROPTOSIS INHIBITORS” (priority 2023, published 2026) can be followed below.

Structures are written as SMILES. pIC50: −log10 of the molar value. Where two headings read alike, the source gives them in different places.

A word on the pIC50: it is the IC50 on a negative log10 scale, so that one unit is a factor of ten.

A short description of data set [1]: Cell-free BODIPY assay with AAPH. The data set is classed as biochemical. The note with it: 25 μM compound; 7.5 mM AAPH. The procedure: As a control, the same amount of DMSO was diluted in 150 μl PBS. […] For the non-oxidized control, one sample was prepared as DMSO only without AAPH. All three solutions were mixed equally and incubated for 30 min at room temperature in the dark.

Data set [2] has as its system HT-1080-derived spheroids. Put plainly: 3D spheroid formation and imaging (roundness). The format is cell-based, Human. The note with it: 200 nM RSL3; 2 μM Fer-1; 6 μM Seratrodast, 48 h. The procedure: Over a period of 48 h spheroids were formed and subsequently treated with RSL3, and Ferrostatin-1 or Seratrodast. […] Images were acquired using an Operetta high-content imaging system (PerkinElmer) and analyses were conducted with the Columbus software (PerkinElmer). For analysis, spheroids were detected as “Image region” and morphology properties were calculated (roundness).

The test system of data set [3] is HT-1080. The experiment in a line: Ferroptosis inhibition, cell viability assay (CellTiter-Glo). The note with it: for pIC50: read-out: IC50 (Ferroptosis inhibition); for cellular efficacy/toxicity window: cytotoxic IC50 versus ferroptosis inhibition IC50, 1080 min. The data set is classed as cell-based, Human. The procedure: Cell lines: Human fibrosarcoma cell line HT-1080 and immortalized Mouse Embryonic Fibroblasts (MEF). MEFs were a gift from Daniel Krappmann, HT-1080 were purchased from ATCC and both cell lines were grown in Dulbecco's Modified Eagle's medium (Thermo Fisher Scientific, 41966-029) supplemented with 10% fetal bovine serum (FBS, Thermo Fisher Scientific), 1% Penicillin-Streptomycin (Thermo Fisher Scientific) and 1% nonessential amino acids (MEM NEAA, Thermo Fisher Scientific). Cells were grown at 37° C. and 5% CO2.
HT-1080 were seeded into 384-well plates (CulturPlates, PerkinElmer) with a density of 750 cells per well. After 24 h of growth, cells were treated with 10 or 12-point serial dilutions of compounds in indicated concentrations for 18 h. Viability was detected by using CellTiter-Glo® 2.0 Regent (Promega) according to the manufacturer's instruction and luminescence was read out in an EnVison 2104 Multilabel plate reader (PerkinElmer).
Background: In ATP-based viability assays light output follows the ATP content of the culture.

Data set [4] in a line: Cytotoxicity, cell viability assay. As to conditions: human, ht-1080 cells, * = signal quenching at higher concentration, toxicity might be less than indicated; read-out: cytotoxic IC50. The data set is classed as cell-based, Human. The procedure:
(§1) After 24 h of growth, cells were treated with 10 or 12-point serial dilutions of compounds in indicated concentrations for 18 h.

For data set [5], the system named is HT-1080. Put plainly: Flow cytometry, BODIPY 581/591 C11 lipid peroxidation sensor. The data set is classed as cell-based, Human. As to conditions: 200 nM RSL3; 6 μM Seratrodast, 2.5 h. The procedure: (§2) HT1080 cells were grown in 6-well plates (200,000 cells per well) and incubated for 24 h. For staining with BODIPY 581/591 C11 (Thermo Fisher Scientific), cells were treated with RSL3, and Ferrostatin-1 or Seratrodast for 2 h, then BODIPY was added into the wells to a final concentration of 2 μM. After 30 min incubation, cells were detached using Trypsin and washed two times with PBS. Between the wash steps, cells were centrifuged at 500×g for 5 minutes. After the final washing step, cell pellets were resuspended in 300 μl PBS and 10,000 events per condition were analyzed in the BL-1 channel of an Attune acoustic flow cytometer (Applied Biosystems). For detection of 4-Hydroxynonenal (4-HNE), HT-1080 were induced with RSL3, and co-treated with Ferrostatin-1 or Seratrodast for 2 h before they were detached using Trypsin. Cell pellets were incubated in 10% normal goat serum (Thermo Fisher Scientific) for 30 min on ice. Subsequently, cells were incubated with anti-4-HNE antibody (1:50 dilution in 1% BSA in PBS, ab46545, Abcam) for 1 h on ice. […] For flow cytometry, cells were collected in 300 μl PBS and 10,000 events per condition were analyzed in an Attune acoustic flow cytometer (Applied Biosystems), using the BL-1 channel. FlowJo™ v10.8.1 (BD Life Sciences) was used for creating histograms and analyzing fluorescence intensity.

The subject of data set [6] is HT-1080. The experiment in a line: Apoptosis assay, Staurosporine-induced Caspase 3/7 activity (Caspase-Glo 3/7). The format is cell-based, Human. The procedure:
For detecting apoptosis, HT-1080 were treated with Staurosporine before addition of Seratrodast or zVAD-FMK. Caspase 3/7 activity was measured 18 hours later via Caspase-Glo® 3/7 Assay Reagent (Promega) according to the manufacturer's instruction. Cells were incubated for 45 min at room temperature and luminescence was measured.

Data set [7] has as its system HT-1080. The experiment in a line: TBARS assay (MDA levels). The format is cell-based, Human. As to conditions: 250 nM RSL3; 6 μM Seratrodast, 2.5 h. The procedure:
2 million HT-1080 cells were seeded into 150 mm dishes and grown for 48 hours. Ferroptosis was induced with RSL3 for 2.5 hours and cells were co-treated with Ferrostatin-1 or Seratrodast. Cells were detached by 0.05% Trypsin-EDTA (Thermo Fisher Scientific) and cell number was adjusted to the sample with the lowest cell count. For measuring MDA levels, TBARS (TCA Method) Assay Kit (Cayman Chemical, 700870) was used according to manufacturer's instruction. Fluorescence was detected at 530 nm/550 nm in an EnVision 2104 Multilabel plate reader (PerkinElmer).

In data set [8] the test system is Mouse Embryonic Fibroblasts (MEF). The experiment in a line: Necroptosis assay, TNFα + zVAD-FMK + LCL161, cell viability. The format is cell-based. The procedure:
For detecting necroptosis, MEF were treated with TNFα, zVAD-FMK and LCL161 before addition of Seratrodast or Necrostatin-1. Cell viability was measured after 18 hours by adding CellTiter-Glo® 2.0 Reagent (Promega) according to the manufacturer's instruction and luminescence was read out.

Data set [9] has as its system HT-1080. Put plainly: Flow cytometry, 4-Hydroxynonenal (4-HNE) immunostaining. The data set is classed as cell-based, Human. The note with it: 300 nM RSL3; 6 μM Seratrodast, 2 h. The procedure: as §2
The subject of data set [10] is HT-1080. Put plainly: Cytotoxicity, cell viability assay. The data set is classed as cell-based, Human. As to conditions: * = signal quenching at higher concentration, toxicity might be less than indicated; 1080 min; read-out: cytotoxic IC50. The procedure:
as §1

Where [11] appears, read: based on the assays of example 1.

Regarding `CCOC(=O)c1ccc(NC2CCCCC2)c(N)c1` [Ferrostatin-1], the “oxidative fluorescence induced by AAPH (cell-free C11-BODIPY)” value in [1] is given as “significantly reduced oxidative fluorescence”. The “inhibition of ferroptosis in 3D spheroid model (spheroid roundness)” value in data set [2] is recorded as “fully inhibited ferroptosis-based spheroid destruction”.
With `CC1=C(C)C(=O)C(C(CCCCCC(=O)O)c2ccccc2)=C(C)C1=O` (stereo not shown) [iQFerr01, Seratrodast, reference compound], the “suppression of ferroptosis (cell viability)” value in [3] (100 nM RSL3 or 1.5 μM IKE for 18 h) is on record as “dose-dependently suppresses ferroptosis”. Besides, in [3] (6 μM Seratrodast, 2 μM Fer-1, 18 h), the “inhibition of ferroptosis induced by RSL3, IKE, FINO2 and FIN56” value is recorded as “able to suppress ferroptosis induced by all four FINs”. In data set [3] (Homo sapiens, HT-1080, based on the assays of example 1), the pIC50 is 6.54. For the same molecule, the cellular efficacy/toxicity window in data set [3] is reported as 200-fold. Further, in [4], the CC50 at 18 h amounted to 57900 nM. Further, in data set [5], the “RSL3-mediated peroxidation of the C11-BODIPY sensor” value is given as “largely reduced”. Moreover, the Apoptosis inhibition result in [6] was “no”. Moreover, in data set [6] (6 μM, 1 μM Staurosporine, 18 h), the inhibition of apoptosis entry is “does not inhibit apoptosis”. Besides, in data set [7], the “RSL3-induced malondialdehyde (MDA) levels” value is “eliminated levels of malondialdehyde”. Further, the Necroptosis inhibition result in [8] is reported as “no”. In data set [8] (6 μM, 20 ng/ml TNFα + 10 μM Z-VAD-FMK + 10 μM LCL161 for 18 h), the inhibition of necroptosis result is “does not inhibit necroptosis”. Besides, in data set [1], the “oxidative fluorescence induced by AAPH (cell-free C11-BODIPY)” value is “significantly reduced oxidative fluorescence”. For the same molecule, the “inhibition of ferroptosis in 3D spheroid model (spheroid roundness)” value in [2] is listed as “fully inhibited ferroptosis-based spheroid destruction”. Further, in data set [9], the “RSL3-induced 4-hydroxynonenal (4-HNE) levels” value was “reduced”.
On to `Cc1ccc(NC2=C(Cl)C(=O)c3ccccc3C2=O)c(C)c1` [iQFerr14, 2-chloro-3-(2,4-dimethylanilino)-1,4-naphtoquinone], for which the pIC50 in [3] (setting [11]) was 10.47. Moreover, the cellular efficacy/toxicity window in data set [3] is given as 5000-fold. The CC50 in data set [10] came to 1000 nM.
In the case of `Cc1ccc(NC2=C(Cl)C(=O)c3ccccc3C2=O)c(C)c1` [iQFerr35, 2-chloro-3-[(2,4-dimethylphenyl)amino]-1,4-dihydronaphthalene-1,4-dione], the pIC50 in [3] (setting [11]) was 9.16. The cellular efficacy/toxicity window in [3] is recorded as 8051-fold. Also, the CC50 in data set [10] is 5570 nM.
